From ChEMBL document CHEMBL5505957 (Eur J Med Chem, 2024)
pIC50: −log10 of the molar value.

Tested on: Influenza A virus
Experiment: microbe, parasite or virus in culture
Details: A/Puerto Rico/8/34, MDCK, 48 h

Compound: Cc1[nH]c(=O)[nH]c(=O)c1CCCc1cn(C2OC(CO)C(O)C2O)nn1 (stereo unspecified)
- pIC50: 4.17
